Patent publication US10131652B2, “Pyrimidinyloxy benzene derivatives as herbicides” (E. I. DU PONT DE NEMOURS AND COMPANY, priority 2014, dated 2018)

Legend:
Type in all cases: in vivo
[1] = system: blackgrass (Alopecurus myosuroides); assay: Test B postemergence plant response
Summary of the method: (§1)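 Visual injury ratings, 0 = no effect to 100 = complete control, versus untreated controls approximately 10 days after postemergence spraying in greenhouse. Plants were at one- to two-leaf stage, 2 to 10 cm tall, in loam soil/sand blend; a dash denotes no result.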

[2] = system: galium (catchweed bedstraw, Galium aparine); assay: Test B postemergence plant response
Summary of the method: as §1

[3] = system: Italian ryegrass (Lolium multiflorum); assay: Test D pre-/postemergence plant response
Summary of the method: (§2)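 Seeds were planted in a loam and sand blend and sprayed preemergence. In parallel, seedlings grown in peat moss/vermiculite medium were sprayed postemergence at 2 to 18 cm height. Both used a surfactant-containing non-phytotoxic solvent. Greenhouse ratings at 13 to 15 days used a 0–100 control scale.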

[4] = system: barnyardgrass (Echinochloa crus-galli); assay: Test D pre-/postemergence plant response
Summary of the method: as §2

corn (Zea mays) = assay: Test D pre-/postemergence plant response
Summary of the method: as §2

[5] = system: giant foxtail (Setaria faberii); assay: Test D pre-/postemergence plant response
Summary of the method: as §2

[6] = system: morningglory (Ipomoea coccinea); assay: Test D pre-/postemergence plant response
Summary of the method: as §2

[7] = system: oilseed rape (Brassica napus); assay: Test D pre-/postemergence plant response
Summary of the method: as §2

[8] = system: pigweed (Amaranthus retroflexus); assay: Test D pre-/postemergence plant response
Summary of the method: as §2

[9] = system: ragweed (common ragweed, Ambrosia elatior); assay: Test D pre-/postemergence plant response
Summary of the method: as §2

soybean (Glycine max) = assay: Test D pre-/postemergence plant response
Summary of the method: as §2

[10] = system: waterhemp (common waterhemp, Amaranthus rudis); assay: Test D pre-/postemergence plant response
Summary of the method: as §2

[11] = system: yellow nutsedge (Cyperus esculentus); assay: Test D pre-/postemergence plant response
Summary of the method: as §2

[12] = system: chickweed (common chickweed, Stellaria media); assay: Test D postemergence plant response; settings: for Chickweed plant response rating: scale 0 to 100 (0 no effect, 100 complete control); for Plant response rating, Chickweed: scale 0 to 100, 0 no effect, 100 complete control
Summary of the method: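 The formulated test chemicals were applied over the foliage of young potted plants (2 to 18 cm tall), which were then held under greenhouse conditions. Between days 13 and 15 each species was rated by eye versus controls, from 0 for no effect up to 100 for complete control.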

[13] = 125 g ai/ha, postemergence, 0 to 100 scale, 0 no effect, 100 complete control
[14] = Postemergence, 31 g ai/ha, 0 to 100 scale (0 no effect, 100 complete control)
[15] = Postemergence, 31 g ai/ha, scale 0 to 100 (0 no effect, 100 complete control)
[16] = Postemergence, 62 g ai/ha, scale 0 to 100, 0 no effect, 100 complete control
[17] = Postemergence, 125 g ai/ha, scale 0 to 100, 0 no effect, 100 complete control
[18] = Preemergence, 8 g ai/ha, scale 0 to 100 (0 no effect, 100 complete control)
[19] = Preemergence, 16 g ai/ha, scale 0 to 100 (0 no effect, 100 complete control)
[20] = Preemergence, 31 g ai/ha, scale 0 to 100 (0 no effect, 100 complete control)
[21] = Preemergence, 62 g ai/ha, scale 0 to 100 (0 no effect, 100 complete control)
[22] = Postemergence, 16 g ai/ha, scale 0 to 100 (0 no effect, 100 complete control)

FC(F)(Cl)c1cc(-c2ccccc2Oc2ncc(Cl)cn2)no1 [Compound 143]
70: Plant response rating, Ryegrass, Italian [3, 21] | Plant response rating, Barnyardgrass [4, 20]
60: Plant response rating, Blackgrass [1, 13] | Plant response rating, Oilseed Rape [7, 16] | Plant response rating, Soybean (soybean (Glycine max); [16]) | Plant response rating, Soybean (soybean (Glycine max); [17]) | Plant response rating, Chickweed ([12]; 62 g ai/ha)
5: Plant response rating, Ryegrass, Italian [3, 19] | Plant response rating, Ryegrass, Italian [3, 20] | Barnyardgrass plant response rating [4, 22] | Barnyardgrass plant response rating [4, 15] | Plant response rating, Barnyardgrass [4, 18] | Corn plant response rating (corn (Zea mays); [22]) | Corn plant response rating (corn (Zea mays); [15]) | Plant response rating, Corn (corn (Zea mays); [16]) | Plant response rating, Corn (corn (Zea mays); [20]) | Foxtail, Giant plant response rating [5, 22] | Ragweed plant response rating [9, 15] | Plant response rating, Soybean (soybean (Glycine max); [19]) | Nutsedge, Yellow plant response rating [11, 15] | Plant response rating, Nutsedge, Yellow [11, 16] | Plant response rating, Nutsedge, Yellow [11, 17] | Plant response rating, Nutsedge, Yellow [11, 21]
55: Plant response rating, Morningglory [6, 21]
85: Plant response rating, Foxtail, Giant [5, 19] | Plant response rating, Oilseed Rape [7, 20]
35: Plant response rating, Morningglory [6, 20]
80: Plant response rating, Chickweed ([12]; 125 g ai/ha)
15: Plant response rating, Ryegrass, Italian [3, 17]
20: Plant response rating, Barnyardgrass [4, 19]
95: Plant response rating, Oilseed Rape [7, 21] | Plant response rating, Waterhemp [10, 18]
45: Chickweed plant response rating ([12]; 16 g ai/ha)
90: Plant response rating, Morningglory [6, 16] | Pigweed plant response rating [8, 15] | Plant response rating, Pigweed [8, 18]
0: Ryegrass, Italian plant response rating [3, 15] | Plant response rating, Ryegrass, Italian [3, 16] | Plant response rating, Ryegrass, Italian [3, 18] | Plant response rating, Corn (corn (Zea mays); [18]) | Plant response rating, Corn (corn (Zea mays); [19]) | Plant response rating, Morningglory [6, 18] | Plant response rating, Oilseed Rape [7, 18] | Plant response rating, Oilseed Rape [7, 19] | Plant response rating, Ragweed [9, 18] | Plant response rating, Ragweed [9, 19] | Plant response rating, Soybean (soybean (Glycine max); [18]) | Plant response rating, Nutsedge, Yellow [11, 18] | Plant response rating, Nutsedge, Yellow [11, 19] | Plant response rating, Nutsedge, Yellow [11, 20]
50: Plant response rating, Galium [2, 14] | Plant response rating, Foxtail, Giant [5, 17] | Oilseed Rape plant response rating [7, 15] | Chickweed plant response rating ([12]; 31 g ai/ha)
100: Plant response rating, Galium [2, 13] | Plant response rating, Corn (corn (Zea mays); [21]) | Plant response rating, Foxtail, Giant [5, 20] | Plant response rating, Foxtail, Giant [5, 21] | Plant response rating, Morningglory [6, 17] | Plant response rating, Pigweed [8, 16] | Plant response rating, Pigweed [8, 17] | Plant response rating, Pigweed [8, 19] | Plant response rating, Pigweed [8, 20] | Plant response rating, Pigweed [8, 21] | Waterhemp plant response rating [10, 15] | Plant response rating, Waterhemp [10, 16] | Plant response rating, Waterhemp [10, 17] | Plant response rating, Waterhemp [10, 19] | Plant response rating, Waterhemp [10, 21]
65: Plant response rating, Barnyardgrass [4, 17] | Plant response rating, Oilseed Rape [7, 17]
40: Plant response rating, Foxtail, Giant [5, 18] | Plant response rating, Ragweed [9, 21]
30: Plant response rating, Blackgrass [1, 14] | Plant response rating, Ragweed [9, 17] | Plant response rating, Ragweed [9, 20] | Soybean plant response rating (soybean (Glycine max); [15])
10: Plant response rating, Barnyardgrass [4, 16] | Plant response rating, Corn (corn (Zea mays); [17]) | Foxtail, Giant plant response rating [5, 15] | Plant response rating, Foxtail, Giant [5, 16] | Plant response rating, Morningglory [6, 19] | Plant response rating, Ragweed [9, 16] | Plant response rating, Soybean (soybean (Glycine max); [20])
25: Plant response rating, Soybean (soybean (Glycine max); [21])
98: Plant response rating, Barnyardgrass [4, 21] | Plant response rating, Waterhemp [10, 20]
